From patent US20150031572A1, “MEANS AND METHODS FOR ASSESSING NEURONAL TOXICITY” (priority 2012, published 2015)
Where a name gives a salt, the structure may show the parent alone. Marks after values point to notes of the source that are not given here.

Assay: Plasma metabolite profiling (GC-MS, LC-MS, SPE-LC-MS) of rats dosed once daily over 28 days; treatment ratios versus untreated control
Assay type: in vivo, rat
Experimental: A group of each 5 male and female rats was dosed once daily with the indicated compounds (see Table 10, below for compounds, applied doses and administration details) over 28 days.
Each dose group in the studies consisted of five rats per sex. Additional groups of each 5 male and female animals served as controls. Before starting the treatment period, animals, which were 62-64 days old when supplied, were acclimatized to the housing and environmental conditions for 7 days. All animals of the animal population were kept under the same constant temperature (20-24±3° C.) and the same constant humidity (30-70%). The animals of the animal population were fed ad libitum. The food to be used was essentially free of chemical or microbial contaminants. Drinking water was also offered ad libitum. Accordingly, the water was free of chemical and microbial contaminants as laid down in the European Drinking Water Directive 98/83/EG. The illumination period was 12 hours light followed by 12 hours darkness (12 hours light, from 6:00 to 18:00, and 12 hours darkness, from 18:00 to 6:00). […] The test substances (compounds) in the Tables 1 to 9 below were dosed and administered as described in the Table 10 above.
In the morning of day 7, 14, and 28, blood was taken from the retro-orbital venous plexus from fasted anaesthetized animals. From each animal, 1 ml of blood was collected with EDTA as anticoagulant. The samples were centrifuged for generation of plasma. All plasma samples were covered with a N2 atmosphere and then stored at −80° C. until analysis.
For mass spectrometry-based metabolite profiling analyses plasma samples were extracted and a polar and a non-polar (lipid) fraction was obtained. For GC-MS analysis, the non-polar fraction was treated with methanol under acidic conditions to yield the fatty acid methyl esters. Both fractions were further derivatised with O-methyl-hydroxyamine hydrochloride and pyridine to convert Oxogroups to O-methyloximes and subsequently with a silylating agent before analysis. In LC-MS analysis, both fractions were reconstituted in appropriate solvent mixtures. HPLC was performed by gradient elution on reversed phase separation columns. Mass spectrometric detection which allows target and high sensitivity MRM (Multiple Reaction Monitoring) profiling in parallel to a full screen analysis was applied as described in WO2003073464.
Steroids and their metabolites were measured by online SPE-LC-MS (Solid phase extraction-LC-MS).
Following comprehensive analytical validation steps, the data for each analyte were normalized against data from pool samples. These samples were run in parallel through the whole process to account for process variability. The significance of treatment group values specific for sex, treatment duration and metabolite was determined by comparing means of the treated groups to the means of the respective untreated control groups using WELCH-test and quantified with treatment ratios versus control and p-values.
The identification of the most important biomarkers per toxicity pattern was done by a ranking of the analytes in the tables below. Therefore the metabolic changes in reference treatments of a given pattern (shown in the table) were compared with changes of the same metabolite in other unrelated treatments. […] The maximum absolute value of the respective TVALUE was taken to indicate the most important metabolite for the pattern.

[1] = plasma, female rats, day 28, high dose, Table 6a
[2] = plasma, female rats, day 28, high dose, Table 6b
[3] = plasma, female rats, day 28, high dose, Table 8c
[4] = plasma, female rats, day 28, high dose, Table 8d
[5] = plasma, female rats, day 7, high dose, Table 4a
[6] = plasma, female rats, day 7, high dose, Table 4b
[7] = plasma, female rats, day 14, high dose, Table 4a
[8] = plasma, female rats, day 14, high dose, Table 4b
[9] = plasma, female rats, day 28, high dose, Table 4a
[10] = plasma, female rats, day 28, high dose, Table 4b

Compound: C#C[C@]1(O)CC[C@H]2[C@@H]3CCc4cc(O)ccc4[C@H]3CC[C@@]21C [17-alpha-Ethynylestradiol]
- 3-Methoxytyrosine, ratio versus control [1]: 1.29*
- Isoleucine, ratio versus control [1]: 1.07
- 4-Hydroxy-3-methoxyphenylglycol (HMPG), ratio versus control [2]: 0.7*
- 14-Methylhexadecanoic acid, ratio versus control [2]: 0.86*
- 16-Methylheptadecanoic acid, ratio versus control [2]: 0.29*
- 17-Methyloctadecanoic acid, ratio versus control [2]: 0.46*
- Ceramide (d18:1,C24:1), ratio versus control [2]: 0.6*
- Choline plasmalogen No 03, ratio versus control [2]: 0.38*
- Homovanillic acid (HVA), ratio versus control [2]: 0.47*
- Isopalmitic acid (C16:0), ratio versus control [2]: 0.51*
- Lactate, ratio versus control [2]: 0.99
- Myristic acid (C14:0), ratio versus control [2]: 0.59*
- Phosphatidylcholine (C16:0, C20:4), ratio versus control [2]: 0.78*
- Phosphatidylcholine No 04, ratio versus control [2]: 0.39*
- Pyruvate, ratio versus control [2]: 0.87*

Compound: CN1CCc2cccc3c2[C@H]1Cc1ccc(O)c(O)c1-3 [Apomorphine]
- Isoleucine, ratio versus control [1]: 1.25*
- 14-Methylhexadecanoic acid, ratio versus control [2]: 0.83*
- 16-Methylheptadecanoic acid, ratio versus control [2]: 0.66*
- 17-Methyloctadecanoic acid, ratio versus control [2]: 0.73*
- Ceramide (d18:1,C24:1), ratio versus control [2]: 0.61*
- Choline plasmalogen No 03, ratio versus control [2]: 0.89*
- Isopalmitic acid (C16:0), ratio versus control [2]: 0.93
- Lactate, ratio versus control [2]: 0.9
- Myristic acid (C14:0), ratio versus control [2]: 0.9*
- Phosphatidylcholine (C16:0, C20:4), ratio versus control [2]: 0.88*
- Phosphatidylcholine No 04, ratio versus control [2]: 0.88*
- Pyruvate, ratio versus control [2]: 0.33*
- 3-Hydroxybutyrate, ratio versus control [3]: 1.41 *
- Isoleucine, ratio versus control [3]: 1.25 *
- TAG (C16:0,C18:2), ratio versus control [3]: 2.31 *
- 16-Methylheptadecanoic acid, ratio versus control [4]: 0.66 *
- 17-Methyloctadecanoic acid, ratio versus control [4]: 0.73 *
- Ceramide (d18:1,C24:1), ratio versus control [4]: 0.61 *
- Phosphatidylcholine (C16:0, C20:4), ratio versus control [4]: 0.88 *
- Phosphatidylcholine (C18:0, C20:3), ratio versus control [4]: 0.98 *
- Pyruvate, ratio versus control [4]: 0.33 *

Compound: CC(C)C[C@H]1C(=O)N2CCC[C@H]2[C@]2(O)O[C@](NC(=O)[C@@H]3C=C4c5cccc6[nH]c(Br)c(c56)C[C@H]4N(C)C3)(C(C)C)C(=O)N12 [Bromocriptine Mesylate]
- Isoleucine, ratio versus control [1]: 1.14*
- 14-Methylhexadecanoic acid, ratio versus control [2]: 0.85*
- 16-Methylheptadecanoic acid, ratio versus control [2]: 0.51*
- 17-Methyloctadecanoic acid, ratio versus control [2]: 0.67*
- Ceramide (d18:1,C24:1), ratio versus control [2]: 0.6*
- Choline plasmalogen No 03, ratio versus control [2]: 0.62*
- Isopalmitic acid (C16:0), ratio versus control [2]: 0.62*
- Lactate, ratio versus control [2]: 0.47*
- Myristic acid (C14:0), ratio versus control [2]: 0.84
- Phosphatidylcholine (C16:0, C20:4), ratio versus control [2]: 0.94*
- Phosphatidylcholine No 04, ratio versus control [2]: 0.47*
- Pyruvate, ratio versus control [2]: 0.71*
- 3-Hydroxybutyrate, ratio versus control [3]: 1.13^
- Isoleucine, ratio versus control [3]: 1.14 *
- TAG (C16:0,C18:2), ratio versus control [3]: 1.2 *
- 16-Methylheptadecanoic acid, ratio versus control [4]: 0.51 *
- 17-Methyloctadecanoic acid, ratio versus control [4]: 0.67 *
- Ceramide (d18:1,C24:1), ratio versus control [4]: 0.6 *
- Phosphatidylcholine (C16:0, C20:4), ratio versus control [4]: 0.94 *
- Phosphatidylcholine (C18:0, C20:3), ratio versus control [4]: 0.71 *
- Pyruvate, ratio versus control [4]: 0.71 *

Compound: C=CCN1C[C@H](C(=O)N(CCCN(C)C)C(=O)NCC)C[C@@H]2c3cccc4[nH]cc(c34)C[C@H]21 [Cabergoline]
- Isoleucine, ratio versus control [1]: 1.14*
- 4-Hydroxy-3-methoxyphenylglycol (HMPG), ratio versus control [2]: 0.79*
- 14-Methylhexadecanoic acid, ratio versus control [2]: 0.74*
- 16-Methylheptadecanoic acid, ratio versus control [2]: 0.28*
- 17-Methyloctadecanoic acid, ratio versus control [2]: 0.3*
- Ceramide (d18:1,C24:1), ratio versus control [2]: 0.39*
- Choline plasmalogen No 03, ratio versus control [2]: 0.39*
- Homovanillic acid (HVA), ratio versus control [2]: 0.41*
- Isopalmitic acid (C16:0), ratio versus control [2]: 0.36*
- Lactate, ratio versus control [2]: 0.7*
- Myristic acid (C14:0), ratio versus control [2]: 0.33*
- Phosphatidylcholine (C16:0, C20:4), ratio versus control [2]: 0.97
- Phosphatidylcholine No 04, ratio versus control [2]: 0.34*
- Pyruvate, ratio versus control [2]: 0.93
- 3-Methoxytyrosine, ratio versus control (rat, in vivo): 1.24*

Compound: CN(C)CCCN1c2ccccc2Sc2ccc(Cl)cc21 [Chlorpromazine]
- Ceramide (d18:1,C24:1), ratio versus control [5]: 2.34*
- Docosapentaenoic acid (C22:cis[7,10,13,16,19]5), ratio versus control [5]: 1.46
- Elaidic acid (C18:trans[9]1), ratio versus control [5]: 1.46
- Myristic acid (C14:0), ratio versus control [5]: 0.91
- Phosphatidylcholine (C16:0,C16:0), ratio versus control [5]: 1.11*
- Phosphatidylcholine (C16:1,C18:2), ratio versus control [5]: 1.38*
- TAG No 07, ratio versus control [5]: 2.57*
- myo-Inositol, lipid fraction, ratio versus control [5]: 1.42
- Creatinine, ratio versus control [6]: 0.97
- Glutamate, ratio versus control [6]: 0.83*
- Glycine, ratio versus control [6]: 1.01
- Lactate, ratio versus control [6]: 0.65*
- Myristic acid (C14:0), ratio versus control [6]: 0.91
- Uric acid, ratio versus control [6]: 0.62*
- Ceramide (d18:1,C24:1), ratio versus control [7]: 1.44*
- Docosapentaenoic acid (C22:cis[7,10,13,16,19]5), ratio versus control [7]: 1.17
- Galactose, lipid fraction, ratio versus control [7]: 1
- Myristic acid (C14:0), ratio versus control [7]: 1.04
- Phosphatidylcholine (C16:0,C16:0), ratio versus control [7]: 1.3*
- Phosphatidylcholine (C16:1,C18:2), ratio versus control [7]: 1.02
- TAG No 07, ratio versus control [7]: 1.79
- myo-Inositol, lipid fraction, ratio versus control [7]: 1.02
- Creatinine, ratio versus control [8]: 0.86
- Glutamate, ratio versus control [8]: 0.93*
- Lactate, ratio versus control [8]: 0.97
- Myristic acid (C14:0), ratio versus control [8]: 1.04
- Uric acid, ratio versus control [8]: 0.84
- Ceramide (d18:1,C24:1), ratio versus control [9]: 1.22
- Docosapentaenoic acid (C22:cis[7,10,13,16,19]5), ratio versus control [9]: 1.18*
- Elaidic acid (C18:trans[9]1), ratio versus control [9]: 0.98
- Galactose, lipid fraction, ratio versus control [9]: 0.91
- Myristic acid (C14:0), ratio versus control [9]: 0.89
- Phosphatidylcholine (C16:0,C16:0), ratio versus control [9]: 1.14
- Phosphatidylcholine (C16:1,C18:2), ratio versus control [9]: 1
- TAG No 07, ratio versus control [9]: 2.1*
- myo-Inositol, lipid fraction, ratio versus control [9]: 0.96
- Creatinine, ratio versus control [10]: 0.84*
- Glutamate, ratio versus control [10]: 1.05
- Glycine, ratio versus control [10]: 1.01
- Lactate, ratio versus control [10]: 0.94
- Myristic acid (C14:0), ratio versus control [10]: 0.89*
- Uric acid, ratio versus control [10]: 0.88
- Elaidic acid (C18:trans[9]1), ratio versus control (rat, in vivo): 1.16*
- Galactose, lipid fraction, ratio versus control (rat, in vivo): 1.34*
- Glycine, ratio versus control (rat, in vivo): 1.06*
